Data published in patent US12472166B2, “Inhibition of mycobacterial type VII secretion” (priority 2019, dated 2025).
Like-named read-outs stand apart in the source and are kept apart here.

What was measured:
M. tuberculosis = experiment: microbe, parasite or virus in culture; format: cell-based; conditions: for IC50: read-out: IC50 (μM) M.tb/REMA; for IC90: read-out: IC90 (μM) M.tb/REMA; for increase of activity as compared to compound I-12: tested on M. tuberculosis
zebrafish embryos = conditions: in vivo
M. tuberculosis H37Rv WT = experiment: THP-1 macrophage infection study, CFU counting; format: cell-based, Mycobacterium tuberculosis; conditions: for activity compared with Ethambutol (EMB) / activity compared with Streptomycin (STR) / reduction of bacteria as compared to the DMSO control: 10 μM; for concentration with significant decrease of bacterial load as compared to the DMSO control: THP-1 macrophages, MOI 1, day 5
[1] = human, microsomes, pH 7.4; for Compound remaining (%): 0.5 h
in vitro = conditions: human, microsomes, pH 7.4
[2] = test system: M. marinum WT bacteria expressing rfp; conditions: 10 μM
Experimental: To assess anti-bacterial activity of the compounds in an animal model, zebra-fish embryos were infected by injection of WT M. marinum into the cardinal vein. The bacteria express rfp, which enables the quantification of infection in vivo by measuring red fluorescence. After injection of the bacteria into the fish, the infection was allowed to establish for 20 h. Then, the test compounds or DMSO control were added for three days before the infection was quantified by measuring fluorescence in each fish. […] Dechorionated zebra fish embryos were one day post fertilization infected by microinjection into the cardinal vein with 70 M. marinum WT bacteria expressing rfp. 20 h after infection, the compounds were added to the fish water at the indicated concentrations. After 4 days post infection the fish were imaged on a fluorescent microscope (A) and red pixels were quantified (B). As control served non-treated fish and non-infected fish. The fish water of all groups contained equal amounts of DMSO. Each data point represents a single fish. […] Statistical analysis was determined by ANOVA testing by comparing each group to the non-treated group of fish. p>0.05, not significant, not indicated. p<0.05=*, p<0.01=**, p<0.001=***.

M. marinum = format: cell-based
[3] = Mycobacterium tuberculosis, 168 h, replicating M. tuberculosis, seven days, 37° C.
[4] = Mycobacterium tuberculosis, concentration that reduced bacterial viability to lower than 10%
[5] = Mycobacterium tuberculosis, 168 h

## O=C(CSc1nc(-c2ccc(Cl)cc2)ns1)NC1CCCC1 [Compound I-17]
M. tuberculosis; [3]
  IC50: 0.21 µM
M. tuberculosis; [4]
  IC90: 2.5 µM

## CNC(=O)CSc1nc(-c2ccc(OC)cc2)ns1 [Compound I-27]
M. tuberculosis; [3]
  IC50: 1.85 µM
M. tuberculosis; [4]
  IC90: 5 µM

## O=C(CSc1nc(-c2ccccc2)ns1)NC1CCCC1 [Compound I-26]
M. tuberculosis; [3]
  IC50: 1.17 µM
M. tuberculosis; [4]
  IC90: 5 µM

## CCOC(=O)CNC(=O)CSc1nc(-c2cccc(C)c2)ns1 [Compound I-40, reference compound]
M. tuberculosis; [5]
  IC50: 0.169 µM
M. tuberculosis; Mycobacterium tuberculosis
  IC90: 0.31 µM
Zebrafish embryos
  toxicity (survival of zebra fish embryos scored by heartbeat): toxic

## O=C(CSc1nc(-c2ccncc2)ns1)NC1CCCC1 [Compound I-23]
M. tuberculosis; [3]
  IC50: 0.762 µM
M. tuberculosis; [4]
  IC90: 2.5 µM

## CCCNC(=O)CSc1nc(-c2ccccc2)ns1 [Compound I-1]
M. tuberculosis; [3]
  IC50: 0.083 µM
M. tuberculosis; [4]
  IC90: 0.16 µM
M. tuberculosis
  increase of activity as compared to compound I-12: eight-fold
M. tuberculosis H37Rv WT
  activity compared with Ethambutol (EMB): as active as EMB
  activity compared with Streptomycin (STR): higher activity than STR
  reduction of bacteria as compared to the DMSO control: approximately 100 fold
  concentration with significant decrease of bacterial load as compared to the DMSO control: 1 µM
[1]; 15 μM
  Half-life: 45.6 min
[1]
  Compound remaining (%): 64%
In vitro
  CLint scaled at 15 μM: 13.6 mL/min/kg

## CCCC(C)NC(=O)CSc1nc(-c2ccc(OC)cc2)ns1 (stereo not drawn) [Compound I-29]
M. tuberculosis; [3]
  IC50: 1.25 µM
M. tuberculosis; [4]
  IC90: 10 µM

## C=CCNC(=O)CSc1nc(-c2ccc(OC)cc2)ns1 [Compound I-6]
M. tuberculosis; [5]
  IC50: 0.291 µM
M. tuberculosis; Mycobacterium tuberculosis
  IC90: 0.63 µM

## CCCNC(=O)CSc1nc(-c2ccc(OC)cc2)ns1 [Compound I-3]
M. tuberculosis; [3]
  IC50: 0.123 µM
M. tuberculosis; [4]
  IC90: 0.63 µM
M. tuberculosis
  increase of activity as compared to compound I-12: four-fold
M. tuberculosis H37Rv WT
  activity compared with Ethambutol (EMB): as active as EMB
  activity compared with Streptomycin (STR): higher activity than STR
  reduction of bacteria as compared to the DMSO control: approximately 100 fold
  concentration with significant decrease of bacterial load as compared to the DMSO control: 1 µM
[1]; 15 μM
  Half-life: 9 min
[1]
  Compound remaining (%): 11%
[2]
  bacterial fluorescence: reduction of bacterial fluorescence to background levels
In vitro
  CLint scaled at 15 μM: 67.4 mL/min/kg

## O=C(CSc1nc(-c2ccccc2)ns1)NCCC(F)(F)F [Compound I-35]
M. tuberculosis; [3]
  IC50: 0.224 µM
M. tuberculosis; [4]
  IC90: 0.63 µM
[1]; 15 μM
  Half-life: 48.6 min
[1]
  Compound remaining (%): 65%
In vitro
  CLint scaled at 15 μM: 12.8 mL/min/kg

## COc1ccc(-c2nsc(SCC(=O)Nc3ccccc3)n2)cc1 [Compound I-21]
M. tuberculosis; [3]
  IC50: 0.559 µM
M. tuberculosis; [4]
  IC90: 2.5 µM

## COCCNC(=O)CSc1nc(-c2ccc(OC)cc2)ns1 [Compound I-4]
M. tuberculosis; [3]
  IC50: 0.133 µM
M. tuberculosis; [4]
  IC90: 0.63 µM

## COc1ccc(-c2nsc(SCC(=O)Nc3cnccn3)n2)cc1 [Compound I-24]
M. tuberculosis; [3]
  IC50: 4.1 µM
M. tuberculosis; [4]
  IC90: 2.5 µM

## COc1ccc(-c2nsc(SCC(=O)N3CCOCC3)n2)cc1 [Compound I-15]
M. tuberculosis; [3]
  IC50: 0.121 µM
M. tuberculosis; [4]
  IC90: 2.5 µM

## COc1cccc(-c2nsc(SCC(=O)NC3CCCC3)n2)c1 [Compound I-8]
M. tuberculosis; [3]
  IC50: 0.076 µM
M. tuberculosis; [4]
  IC90: 1.25 µM

## CCCNC(=O)COc1nc(-c2ccccc2)ns1 [Compound I-42]
M. tuberculosis; [3]
  IC50: > 10 µM
M. tuberculosis; [4]
  IC90: > 10 µM

## CCOC(=O)CNC(=O)CSc1nc(-c2ccccc2)ns1 [Compound I-41, reference compound]
M. tuberculosis; [5]
  IC50: 0.269 µM
M. tuberculosis; Mycobacterium tuberculosis
  IC90: 0.63 µM
Zebrafish embryos
  toxicity (survival of zebra fish embryos scored by heartbeat): toxic

## O=C(CSc1nc(-c2cccnc2)ns1)NC1CCCC1 [Compound I-19]
M. tuberculosis; [3]
  IC50: 0.502 µM
M. tuberculosis; [4]
  IC90: 2.5 µM

## CO[C@H]1/C=C/O[C@@]2(C)Oc3c(C)c(O)c4c(O)c(c(/C=N/N5CCN(C)CC5)c(O)c4c3C2=O)NC(=O)/C(C)=C\C=C\[C@H](C)[C@H](O)[C@@H](C)[C@@H](O)[C@@H](C)[C@H](OC(C)=O)[C@@H]1C [Rifampin, reference compound]
M. marinum
  bacterial viability (REMA) readout, control condition: negative

## CCCCNC(=O)CSc1nc(-c2ccc(OC)cc2)ns1 [Compound I-14]
M. tuberculosis; [3]
  IC50: 0.496 µM
M. tuberculosis; [4]
  IC90: 1.25 µM

## O=C(CSc1nc(-c2ccc(Cl)cc2)ns1)NCCC(F)(F)F [Compound I-37]
M. tuberculosis; [3]
  IC50: 0.116 µM
M. tuberculosis; [4]
  IC90: 0.31 µM
[1]
  Compound remaining (%): 55%
  Half-life: 34.8 min
In vitro
  CLint scaled: 18 mL/min/kg

## O=C(CSc1nc(-c2ccccc2)no1)NC1CCCC1 [Compound I-31]
M. tuberculosis; 10 μM
  growth of M. tuberculosis: inhibited growth
M. tuberculosis
  IC50: 2.71 µM
  IC90: 10 µM
